Results taken from ChEMBL document CHEMBL4251603, “Structure-activity studies on N-Substituted tranylcypromine derivatives lead to selective inhibitors of lysine specific demethylase 1 (LSD1) and potent inducers of leukemic cell differentiation” (Eur J Med Chem, 2018).
pIC50: −log10 of the molar value. Activity calls are given as the source filed them. The calls are words filed in the database; no cut-off is given here.

How the values were obtained:
[1] = molecular target: Lysine-specific histone demethylase 1A (Homo sapiens, UniProt O60341)
SJRH30 [2] = test: Potentiation of JNJ-26481585-induced cell death in human Rh30 cells after 72 hrs by propidium iodide/Hoechst 33342 staining based fluorescence microscopic analysis; type: functional
[3] = molecular target: T1, Amine oxidase [flavin-containing] A (Homo sapiens, UniProt P21397)
T1 sequence (P21397 whole entry): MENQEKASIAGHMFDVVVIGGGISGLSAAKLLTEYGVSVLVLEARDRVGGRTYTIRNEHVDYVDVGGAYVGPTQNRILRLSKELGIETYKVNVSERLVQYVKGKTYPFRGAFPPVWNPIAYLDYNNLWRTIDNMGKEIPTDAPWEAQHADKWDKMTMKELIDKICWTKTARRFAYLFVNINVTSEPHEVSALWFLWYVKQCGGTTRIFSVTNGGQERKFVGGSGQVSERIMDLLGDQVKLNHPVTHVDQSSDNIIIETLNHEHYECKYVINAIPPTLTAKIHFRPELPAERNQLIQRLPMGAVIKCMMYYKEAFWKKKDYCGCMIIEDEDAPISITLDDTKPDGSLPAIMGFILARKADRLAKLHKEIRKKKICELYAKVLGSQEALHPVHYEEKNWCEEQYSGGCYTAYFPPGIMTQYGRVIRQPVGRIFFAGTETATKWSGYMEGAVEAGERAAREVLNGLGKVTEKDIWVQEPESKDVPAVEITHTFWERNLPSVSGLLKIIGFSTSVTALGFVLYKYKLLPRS

THP-1 = test: cells; settings: Homo sapiens, THP-1, 5 min, read-out: INH
SJRH30 [4] = test: Induction of cell death in human Rh30 cells at 50 to 100 nM after 72 hrs by propidium iodide/Hoechst 33342 staining based fluorescence microscopic analysis; type: functional
[5] = molecular target: T2, Amine oxidase [flavin-containing] B (Homo sapiens, UniProt P27338); test: (§1) Inhibition of MAO-B (unknown origin) at 250 uM using beetle luciferin derived luminogenic substrate preincubated for 15 mins followed by substrate addition measured after 60 mins by MAO-Glo assay relative to control; settings: 1 h, 250 µM
T2 sequence (P27338 whole entry): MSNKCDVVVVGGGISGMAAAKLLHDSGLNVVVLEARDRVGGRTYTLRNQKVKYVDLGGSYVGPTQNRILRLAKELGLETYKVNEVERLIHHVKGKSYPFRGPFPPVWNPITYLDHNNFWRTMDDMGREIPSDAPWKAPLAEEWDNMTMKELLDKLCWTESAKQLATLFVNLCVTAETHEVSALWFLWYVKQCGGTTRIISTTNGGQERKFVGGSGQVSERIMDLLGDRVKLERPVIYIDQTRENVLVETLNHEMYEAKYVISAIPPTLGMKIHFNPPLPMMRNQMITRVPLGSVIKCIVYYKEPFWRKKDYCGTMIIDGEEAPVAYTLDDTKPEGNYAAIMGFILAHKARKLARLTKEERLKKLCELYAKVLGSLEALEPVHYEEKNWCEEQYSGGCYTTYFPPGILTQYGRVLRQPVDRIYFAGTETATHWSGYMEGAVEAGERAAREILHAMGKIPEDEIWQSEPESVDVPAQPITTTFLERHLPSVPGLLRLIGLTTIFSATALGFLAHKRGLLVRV

MAO-B = molecular target: T3, MAO-B (Homo sapiens, UniProt P27338); test: as §1; settings: MAO-B enzyme (unknown origin), probe beetle luciferin derived luminogenic substrate
T3 sequence (P27338 whole entry): T2 sequence (P27338 whole entry)

pIC50 [1]	pIC50 [3]	inhibition (INH) [5]	inhibition at 1 h, 250 µM (MAO-B) [%]	Compound	Activity (SJRH30 [2])	inhibition at 0.05 µM (THP-1) [%]	Activity (SJRH30 [4])
7.05				Cc1ccc(-c2ncc(OCC3CCNC3)cc2-c2ccc(C#N)cc2)cc1 (centres undefined)			
	4.77	Not Active		CNS(=O)(=O)c1ccc(CN[C@H]2C[C@@H]2c2ccccc2)cc1 (relative stereo)	Active	80	Active
	4.67		42	NS(=O)(=O)c1ccc(CN[C@H]2C[C@@H]2c2ccccc2)cc1 (relative stereo)	Active	80	Active
5.77				O=C(O)c1ccc(CN2CCC(CN[C@H]3C[C@@H]3c3ccccc3)CC2)cc1	Active		Active
